In patent publication US9783536B2, “Nitrogen-containing heterocyclic compound or salt thereof” (FUJIFILM Corporation, priority 2013, dated 2017):
Structures can show the parent of a compound that is named as a salt. Where two headings read alike, the source gives them in different places.

Experiments:
[1] = target: T1, GST fusion human ERK2 protein (Homo sapiens, UniProt P28482); assay: ERK2 enzyme assay (1); assay type: biochemical; settings: read-out: ERK2 enzyme inhibitory activity (1)
T1 construct: purchased Carna Biosciences, Inc; host or cells: E. coli expression system
Experimental: In an ERK2 enzyme assay, GLUTATHIONE S-TRANSFERASE (GST) FUSION HUMAN ERK2 PROTEIN (manufactured by Carna Biosciences, Inc.), which was produced by using an E. coli expression system, was used.
12 μL of a reaction liquid (2.5 nmol/L ERK2, 100 mmol/L Hepes, 10 mmol/L MgCl2, 1.5 mmol/L DTT, 0.003% Brij35, pH 7.5) including ERK2 protein and a test compound having a predetermined concentration was allowed to stand at room temperature for 15 minutes. Then, 3 μL of a mixture liquid of FL-PEPTIDE8 (5-FAM-IPTSPITTTYFFFKKK-COOH) (manufactured by Caliper Life Sciences), which is substrate peptide, and ATP (manufactured by Sigma-Aldrich Co. LLC.) was added thereto such that the final concentrations thereof became 4.25 μmol/L and 43.1 μmol/L, respectively, and an enzyme reaction was performed by allowing to stand at 25° C. for 120 minutes.
After the reaction, the enzyme reaction was stopped by adding 30 μL of a reaction stopper liquid (100 mmol/L HEPES, 11.2 mmol/L EDTA, 5.6% Brij35, pH 7.5) including a 0.5% COATING REAGENT 8 (trade name, manufactured by Perkin Elmer Inc.) thereto. Then, phosphorylated peptide and non-phosphorylated peptide were separated using LABCHIP EZ READER (trade name, manufactured by Caliper Life Sciences), and the porportion of the phosphorylated peptide was quantified.
The inhibitory activities of the compounds were evaluated using IC50 (50% inhibitory concentration). The IC50 was calculated using XLFIT (trade name, manufactured by ID Business Solutions).

[2] = target: T2, human PI3Kα protein (Homo sapiens, UniProt P42336); assay: PI3Kα enzyme assay (ADP-Glo); assay type: biochemical; settings: read-out: PI3Kα enzyme inhibitory activity
T2 construct: purchased Carna Biosciences, Inc; host or cells: baculovirus expression system
Outline: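 Biotinylated human PI3Kα (baculovirus-expressed, 4.5 nmol/L) pre-incubated 15 min with compound in Tris-HCl pH 7.5, MgCl2, BSA; reaction 60 min at 25° C with 50 μmol/L PIP2 and 100 μmol/L ATP final. ADP quantified by ADP-Glo luminescence; IC50 calculated.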

[3] = 2.5 nmol/L ERK2, ATP 43.1 μmol/L
[4] = 4.5 nmol/L PI3Kα, PIP2 50 μmol/L, ATP 100 μmol/L

T2 sequence (P42336 whole entry): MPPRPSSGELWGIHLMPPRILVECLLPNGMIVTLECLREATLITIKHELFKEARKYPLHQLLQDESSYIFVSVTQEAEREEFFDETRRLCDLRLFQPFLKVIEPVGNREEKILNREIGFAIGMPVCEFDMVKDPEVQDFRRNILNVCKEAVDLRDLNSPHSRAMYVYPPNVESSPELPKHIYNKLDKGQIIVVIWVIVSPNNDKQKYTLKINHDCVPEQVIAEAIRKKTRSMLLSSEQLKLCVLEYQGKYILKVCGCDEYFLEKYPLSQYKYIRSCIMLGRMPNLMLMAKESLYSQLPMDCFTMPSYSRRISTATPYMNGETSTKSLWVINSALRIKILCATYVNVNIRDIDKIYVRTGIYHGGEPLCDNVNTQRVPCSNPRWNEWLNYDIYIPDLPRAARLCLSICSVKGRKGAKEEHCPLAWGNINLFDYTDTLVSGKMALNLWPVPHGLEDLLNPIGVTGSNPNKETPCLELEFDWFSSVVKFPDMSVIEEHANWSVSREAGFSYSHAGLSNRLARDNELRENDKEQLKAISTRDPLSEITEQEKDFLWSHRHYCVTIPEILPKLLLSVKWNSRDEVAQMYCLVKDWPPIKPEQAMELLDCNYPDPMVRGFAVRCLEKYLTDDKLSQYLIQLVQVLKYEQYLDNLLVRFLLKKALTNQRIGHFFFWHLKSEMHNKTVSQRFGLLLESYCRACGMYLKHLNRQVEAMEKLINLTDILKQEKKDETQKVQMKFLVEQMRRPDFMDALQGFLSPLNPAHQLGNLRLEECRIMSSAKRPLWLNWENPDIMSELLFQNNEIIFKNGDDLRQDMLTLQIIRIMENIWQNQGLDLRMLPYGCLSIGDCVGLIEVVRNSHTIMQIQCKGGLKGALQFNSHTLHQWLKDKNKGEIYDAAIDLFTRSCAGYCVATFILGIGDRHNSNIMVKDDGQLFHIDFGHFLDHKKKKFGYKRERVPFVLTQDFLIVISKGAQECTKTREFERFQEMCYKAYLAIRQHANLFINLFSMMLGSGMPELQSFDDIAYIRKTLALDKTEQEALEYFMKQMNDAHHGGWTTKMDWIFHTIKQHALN
T2 sequence (P27986 whole entry partner): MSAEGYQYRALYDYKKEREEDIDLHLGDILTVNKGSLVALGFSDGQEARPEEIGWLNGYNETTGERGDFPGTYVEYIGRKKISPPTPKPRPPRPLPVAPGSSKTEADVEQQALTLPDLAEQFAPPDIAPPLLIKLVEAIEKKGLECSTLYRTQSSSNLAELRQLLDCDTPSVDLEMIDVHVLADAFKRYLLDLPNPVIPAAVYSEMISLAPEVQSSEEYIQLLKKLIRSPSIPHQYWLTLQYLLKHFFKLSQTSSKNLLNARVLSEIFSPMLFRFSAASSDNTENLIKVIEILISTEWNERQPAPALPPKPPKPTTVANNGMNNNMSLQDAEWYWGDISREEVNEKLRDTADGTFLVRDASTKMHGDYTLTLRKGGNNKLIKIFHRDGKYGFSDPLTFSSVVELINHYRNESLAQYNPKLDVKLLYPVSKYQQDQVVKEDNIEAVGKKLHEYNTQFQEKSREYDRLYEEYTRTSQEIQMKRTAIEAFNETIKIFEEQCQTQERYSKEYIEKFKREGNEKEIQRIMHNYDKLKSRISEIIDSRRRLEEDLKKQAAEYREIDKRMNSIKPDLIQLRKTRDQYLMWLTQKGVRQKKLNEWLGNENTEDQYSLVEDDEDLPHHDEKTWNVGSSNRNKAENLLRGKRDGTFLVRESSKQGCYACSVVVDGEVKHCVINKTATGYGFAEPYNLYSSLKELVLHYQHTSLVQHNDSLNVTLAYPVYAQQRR
T1 sequence (P28482 whole entry, the tested form may be a part): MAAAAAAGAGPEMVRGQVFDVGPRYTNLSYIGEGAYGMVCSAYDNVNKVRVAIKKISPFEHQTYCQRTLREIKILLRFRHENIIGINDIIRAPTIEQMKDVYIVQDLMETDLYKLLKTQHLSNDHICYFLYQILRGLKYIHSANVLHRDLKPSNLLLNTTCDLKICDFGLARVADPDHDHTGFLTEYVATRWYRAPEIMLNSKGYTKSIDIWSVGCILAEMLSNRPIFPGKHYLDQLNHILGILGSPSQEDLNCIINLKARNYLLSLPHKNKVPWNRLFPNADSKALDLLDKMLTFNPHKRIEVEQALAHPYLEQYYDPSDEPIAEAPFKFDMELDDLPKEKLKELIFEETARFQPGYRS

IC50 ([1]; ERK2 enzyme assay (1)) | IC50 [2] | IC50 [1, 3] | IC50 [2, 4] | SMILES
< 1000 nM | 1000 to 10000 nM | – | – | COCCNc1cnc2ccc(Nc3nnc(C4CCCC4)s3)nc2c1 [Example 0308]
< 1000 nM | < 1000 nM | – | – | c1cc(Nc2cnc3ccc(Nc4nnc(C5CCCC5)s4)nc3c2)ccn1 [Example 0208]
< 1000 nM | < 1000 nM | – | – | CCC1=C(OC)C(OC)=CC(Nc2cnc3ccc(Nc4nnc(C5CCCC5)s4)nc3c2)C1 (centres unmarked) [Example 0205]
< 1000 nM | < 1000 nM | – | – | CC(C)c1cnnc(Nc2ccc3ncc(-c4cnn(CCc5ccncc5)c4)cc3n2)c1 [Example 0377]
– | – | < 1000 nM | 1000 to 10000 nM | OCCCN1CCN(c2cnc3ccc(Nc4nnc(C5CCCC5)s4)nc3c2)CC1 [Example 0050]
– | – | < 1000 nM | 10000 to 50000 nM | Oc1cnc2ccc(Nc3nnc(C4CCCC4)s3)nc2c1 [Example 0040, 6-((5-cyclopentyl-1,3,4-thiadiazol-2-yl)amino)-1,5-naphthyridin-3-ol hydrochloride]
– | – | 1000 to 10000 nM | 10000 to 50000 nM | c1ccc(-c2ccc(Nc3cnc4ccc(Nc5nnc(C6CCCC6)s5)nc4c3)cn2)cc1 [Example 0069]
– | – | < 1000 nM | < 1000 nM | Cn1cc(-c2cnc3ccc(Nc4nnc(NS(=O)(=O)c5ccccc5)s4)nc3c2)cn1 [Example 0177, N-(5-((7-(1-methyl-1H-pyrazol-4-yl)-1,5-naphthyridin-2-yl)amino)-1,3,4-thiadiazol-2-yl)benzene sulfonamide hydrochloride]
< 1000 nM | 1000 to 10000 nM | – | – | c1n[nH]cc1Nc1cnc2ccc(Nc3nnc(N4CCOCC4)s3)nc2c1 [Example 0225, N^2-(5-morpholino-1,3,4-thiadiazol-2-yl)-N^7-(1H-pyrazol-4-yl)-1,5-naphthyridine-2,7-diamine]
< 1000 nM | < 1000 nM | – | – | CC(C)c1nnc(Nc2ccc3ncc(-c4cn(C)nc4-c4cnn(C)c4)cc3n2)s1 [Example 0477]
– | – | < 1000 nM | < 1000 nM | c1nnc(Nc2ccc3ncc(-c4cnn(CCN5CCOCC5)c4)cc3n2)s1 [Example 0002]
– | – | < 1000 nM | < 1000 nM | O=C(c1ccc(Nc2cnc3ccc(Nc4nnc(C5CCCC5)s4)nc3c2)cn1)N1CCOCC1 [Example 0106]
< 1000 nM | < 1000 nM | – | – | Cn1cc(-c2cc3nc(Nc4nncs4)ccc3nc2N)cn1 [Example 0306, 7-(1-methyl-1H-pyrazol-4-yl)-N^2-(1,3,4-thiadiazol-2-yl)-1,5-naphthyridine-2,6-diamine]
– | – | < 1000 nM | < 1000 nM | CC(C)(C)c1cncc(Nc2cnc3ccc(Nc4nnc(C5CCCC5)s4)nc3c2)c1 [Example 0103]
< 1000 nM | < 1000 nM | – | – | CC(C)(O)Cc1nnc(Nc2ccc3ncc(-c4cnn(CCCN5CCCC5)c4)cc3n2)s1 [Example 0260]
– | – | 1000 to 10000 nM | < 1000 nM | COc1ccc(Nc2ccnc3ccc(Nc4nnc(C(C)C)s4)nc23)cc1 [Example 0013]
– | – | 10000 to 50000 nM | 1000 to 10000 nM | COc1ccc(-c2cnc3ccc(Nc4nc(C)cs4)nc3c2)cc1OC [Example 0024, N-(7-(3,4-dimethoxyphenyl)-1,5-naphthyridin-2-yl)-4-methylthiazole-2-amine]
< 1000 nM | 1000 to 10000 nM | – | – | COc1ccc(-c2ccnc3ccc(Nc4nnc(C(C)C)s4)nc23)cc1 [Example 0272]
– | – | < 1000 nM | < 1000 nM | c1ncc(OCCN2CCOCC2)cc1Nc1cnc2ccc(Nc3nnc(C4CCCC4)s3)nc2c1 [Example 0082]
< 1000 nM | < 1000 nM | – | – | Cc1cnnc(Nc2ccc3ncc(-c4cn(C)nc4CO)cc3n2)c1 [Example 0397, (1-methyl-4-(6-((5-methylpyridazin-3-yl)amino)-1,5-naphthyridin-3-yl)-1H-pyrazol-3-yl)methanol]
– | – | < 1000 nM | 1000 to 10000 nM | CN1CCN(c2cnc3ccc(Nc4nnc(C5CCCC5)s4)nc3c2)CC1 [Example 0052]

More lines, now with the values behind:

SMILES | IC50 ([1]; ERK2 enzyme assay (1)) | IC50 [2] | IC50 [1, 3] | IC50 [2, 4]
c1ccc(-c2cncc(Nc3cnc4ccc(Nc5nnc(C6CCCC6)s5)nc4c3)c2)cc1 [Example 0070] | – | – | < 1000 nM | < 1000 nM
c1cc(Nc2cnc3ccc(Nc4nnc(C5CCCC5)s4)nc3c2)ccc1CCN1CCOCC1 [Example 0107] | – | – | < 1000 nM | < 1000 nM
OCCN1CCN(c2cnc3ccc(Nc4nnc(C5CCCC5)s4)nc3c2)CC1 [Example 0046, 2-(4-(6-((5-cyclopentyl-1,3,4-thiadiazol-2-yl)amino)-1,5-naphthyridin-3-yl)piperazin-1-yl)ethanol hydrochloride] | – | – | < 1000 nM | 1000 to 10000 nM
COCCN(C)c1cnc2ccc(Nc3nnc(C4CCCC4)s3)nc2c1 [Example 0309] | < 1000 nM | 1000 to 10000 nM | – | –
CC(C)c1nnc(Nc2ccc3nccc(N4CCOCC4)c3n2)s1 [Example 0286, 5-isopropyl-N-(8-morpholino-1,5-naphthyridin-2-yl)-1,3,4-thiadiazole-2-amine] | 1000 to 10000 nM | 1000 to 10000 nM | – | –
CC(C)Cc1cnc(Nc2ccc3ncc(-c4cnn(C)c4)cc3n2)s1 [Example 0143, 5-isobutyl-N-(7-(1-methyl-1H-pyrazol-4-yl)-1,5-naphthyridin-2-yl)thiazole-2-amine] | – | – | < 1000 nM | 1000 to 10000 nM
COC[C@@H]1CCCN1c1cnc2ccc(Nc3nnc(C4CCCC4)s3)nc2c1 [Example 0061] | – | – | < 1000 nM | 1000 to 10000 nM
Cc1nn(CCCN2CCCC2)cc1-c1cnc2ccc(Nc3cc(C(C)C)cnn3)nc2c1 [Example 0156, N-(5-isopropylpyridazin-3-yl)-7-(3-methyl-1-(3-(pyrrolidin-1-yl)propyl)-1H-pyrazol-4-yl)-1,5-naphthyridine-2-amine] | – | – | < 1000 nM | < 1000 nM
CC(C)c1nnc(Nc2ccc3ncc(-c4cnn(C)c4-c4cnn(C)c4)cc3n2)s1 [Example 0476, N-(7-(1′,2-dimethyl-1′H,2H-[3,4′-bipyrazole]-4-yl)-1,5-naphthyridin-2-yl)-5-isopropyl-1,3,4-thiadiazole-2-amine] | < 1000 nM | < 1000 nM | – | –
O=C1C=C(c2cnc3ccc(Nc4nnc(C5CCCC5)s4)nc3c2)CO1 [Example 0045, 4-(6-((5-cyclopentyl-1,3,4-thiadiazol-2-yl)amino)-1,5-naphthyridin-3-yl)furan-2(5H)-one hydrochloride] | – | – | < 1000 nM | 10000 to 50000 nM
CCOC(=O)C1CCCN(c2cnc3ccc(Nc4nnc(C5CCCC5)s4)nc3c2)C1 (centres unmarked) [Example 0056] | – | – | < 1000 nM | 10000 to 50000 nM
CC(C)c1cnnc(Nc2ccc3ncc(-c4cnn(CCCN(C)C)c4)cc3n2)c1 [Example 0020, 7-(1-(3-(Dimethylamino)propyl)-1H-pyrazol-4-yl)-N-(5-isopropylpyridazin-3-yl)-1,5-naphthyridine-2-amine] | – | – | < 1000 nM | < 1000 nM
CS(=O)(=O)N1CCCC(Nc2cnc3ccc(Nc4nnc(C5CCCC5)s4)nc3c2)C1 (centres unmarked) [Example 0109] | – | – | 1000 to 10000 nM | < 1000 nM
CC(C)(C)OC(=O)N1CCN(CCn2cc(-c3cnc4ccc(Nc5nnc(S(=O)(=O)Nc6ccccc6)s5)nc4c3)cn2)CC1 [Example 0180, tert-Butyl 4-(2-(4-(6-((5-(N-phenylsulfamoyl)-1,3,4-thiadiazol-2-yl)amino)-1,5-naphthyridin-3-yl)-1H-pyrazol-1-yl)ethyl)piperazine-1-carboxylate] | – | – | < 1000 nM | 1000 to 10000 nM
Nc1nnc(Nc2ccc3ncc(-c4cnn(CCN5CCOCC5)c4)cc3n2)s1 [Example 0254, N^2-(7-(1-(2-morpholinoethyl)-1H-pyrazol-4-yl)-1,5-naphthyridin-2-yl)-1,3,4-thiadiazole-2,5-diamine] | < 1000 nM | < 1000 nM | – | –
CC(C)c1nnc(Nc2ccc3nccc(Nc4ccncc4)c3n2)s1 [Example 0004, N^2-(5-isopropyl-1,3,4-thiadiazol-2-yl)-N^8-(pyridin-4-yl)-1,5-naphthyridine-2,8-diamine] | – | – | < 1000 nM | < 1000 nM
Cc1cnnc(Nc2ccc3ncc(-c4cn[nH]c4)cc3n2)c1 [Example 0154] | – | – | < 1000 nM | 1000 to 10000 nM
OCCNc1cnc2ccc(Nc3nnc(C4CCCC4)s3)nc2c1 [Example 0310] | < 1000 nM | 1000 to 10000 nM | – | –
CN(C)CC(C)(C)Cn1cc(-c2cnc3ccc(Nc4nnc(C5CCCC5)s4)nc3c2)cn1 [Example 0317, 5-Cyclopentyl-N-(7-(1-(3-(dimethylamino)-2,2-dimethylpropyl)-1H-pyrazol-4-yl)-1,5-naphthyridin-2-yl)-1,3,4-thiadiazole-2-amine] | < 1000 nM | < 1000 nM | – | –
